Measurements: US9212147B2, “Dihydroxy aromatic heterocyclic compound” (TAKEDA PHARMACEUTICAL COMPANY LIMITED, priority 2011, dated 2015)

What was measured:
[1] = target: HEK293 cells that stably express human DAAO (Homo sapiens (Human), UniProt P14920); assay: Inhibitory activity test at cellular level using DAAO-expressing cells; format: cell-based; details: D-alanine substrate
Method: HEK293 cells that stably express human DAAO were suspended in Cellbanker solution at 5×10^6 cells/ml and cryopreserved at −80° C. At the time of measurement, the cells were centrifuged at 1000 rpm for one min and the Cellbanker solution was removed. […] A 4% DMSO buffer solution (50 mM sodium phosphate [pH 7.5], 0.02% CHAPS) of the test compound (4 μL) was added to a 384-well black, low volume plate, the cell suspension (4 μL) was added, and the mixture was incubated at room temperature for 15 min.
Reverse transcription was performed on human normal kidney tissue-derived RNA (Clontech Corp.) using reverse transcriptase (SuperScriptIII, Life Technologies Corporation) and oligo (dT) primer (Life Technologies Corporation) according to the protocol of the kit (Life Technologies Corporation) and cDNA was synthesized. Then, using human DAAO_HindIII_F represented by Sequence No. 1 and human DAAO_BamHI_R represented by Sequence No. 2, a PCR reaction (35 cycles of 98° C. for 15 sec, 55° C. for 15 sec and 68° C. for 1 min 30 sec) was performed using DNA polymerase (PrimeSTAR, TAKARA BIO INC.) and cDNA obtained as above as a template. […] The PCR product was cloned in a cloning vector (pCR2.1-TOPO Cloning Kit, Life Technologies Corporation). The sequence of the insert was determined by the dideoxy sequence method (BigDye Terminator v3.1 Cycle Sequencing Kit; Life Technologies Corporation).
To express the ORF full length of DAAO as a protein, the above-mentioned vector was subjected to an enzyme reaction with restriction enzymes HindIII and BamHI at 37° C. for 3 hr, and the restriction enzyme-treated DNA fragment was purified. The DNA fragment containing the ORF was cloned to HindIII and BamHI sites present in the multiple cloning site of the expression vector (pcDNA3.1(+): Invitrogen Co.), whereby an expression plasmid (hDAAO/pcDNA3.1) was constructed.
Then, HEK293 cells were transfected to obtain the forced expression cell line. The cells were spread on a collagen-coated 24-well plate (Corning) to contain 1.0×10^5 cells per well on the day before transfection and, using Lipofectamine 2000 (Invitrogen) and hDAAO/pcDNA3.1, transfected according to the protocol. Thereafter, subculture was performed several times using 800 μg/mL geneticin, whereby a drug resistant cell line was obtained.
To confirm acquisition of the human DAAO expression cell line, the cells were spread on a collagen-coated 384-well black, clear bottom plate to 2.5×10^4 per well, and the cells were cultured at 37° C. in the presence of 5% CO2 for 24 hr. After culturing, the culture supernatant was removed, and a solution containing flavin adenine dinucleotide was added to Hanks-20 mM Hepes (pH 7.4) buffer to 5.5 μg/mL, added by 20 μL per well to the wells from which the supernatant had been removed, and the mixture was allowed to react at 37° C. in the presence of 5% CO2 for 1 hr.

[2] = target: recombinant human DAAO protein (Homo sapiens (Human), UniProt P14920); assay: DAAO inhibitory activity test (H2O2 production, Amplex red/HRP fluorescence); format: biochemical; details: recombinant human DAAO 15 nM, D-alanine substrate, FAD, pH 7.5
Method: The DAAO inhibitory activity was measured by assaying the amount of hydrogen peroxide (H2O2) produced by reacting DAAO protein with flavin adenine dinucleotide (FAD) and D-alanine. The amount of H2O2 was determined by measuring the fluorescence generated on conversion of Amplex red (manufactured by Invitrogen Co.) into resorufin by the reaction of H2O2 with horseradish peroxidase (HRP).
Escherichia coli strain BL21(DE3) (manufactured by Novagen) was transformed with the constructed human DAAO expression vector, inoculated into LB culture medium containing kanamycin at a final concentration of 20 μg/mL, and shake-cultured at 37° C. overnight. The multiplied transformant was inoculated into Terrific Broth containing kanamycin at a final concentration of 20 μg/mL, and shake-cultured at 37° C. until it reached OD600=3.0. Thereafter, the culture was cooled to 30° C., and expression was induced with 1 mM IPTG. After 20 hours, bacterial pellets were recovered by centrifugation.
The bacterial pellets recovered as above were suspended in a lysis buffer (17 mM sodium pyrophosphate buffer pH 8.3, 100 μM FAD, 1 mM sodium benzoate, 1 mM PMSF, 14 mM β-mercaptoethanol, 0.2 mg/mL lysozyme) and the bacteria were fractured by sonication. The sonicated liquid was centrifuged and the supernatant was recovered. To remove the nucleic acid, to this supernatant were sequentially added NaCl (final concentration 0.5M) and 0.05% ethyleneimine (polymer) and, after thorough mixing, the supernatant was recovered by centrifugation. The supernatant was heat treated at 55° C. for 15 min, and the supernatant was recovered by centrifugation. To this supernatant was added 40% saturated ammonium sulfate and, after thorough mixing, the salt precipitate was recovered by centrifugation. The obtained salt precipitate was redissolved in buffer A (50 mM potassium phosphate buffer pH 7.4, 10% glycerol, 200 μM sodium benzoate, 10 μM FAD, 20% saturated ammonium sulfate), and filtered through a 0.22 μm filter (manufactured by Millipore). The obtained filtrate was applied to a hydrophobic interaction column Butyl-S Sepharose 6 Fast Flow (manufactured by GE Healthcare Life Sciences) and eluted with buffer B (10 mM Tris buffer solution pH 8.0, 200 μM sodium benzoate, 10% glycerol, 10 μM FAD). The eluent was applied to an anion-exchange column, Q Sepharose Fast Flow (manufactured by GE Healthcare Life Sciences) and eluted using an NaCl concentration gradient. The eluate was replaced with buffer B (sic) using Amicon Ultra-15 10 kDa (manufactured by Millipore), and thereafter applied to an anion-exchange column, RESOURCE Q 6 mL (manufactured by GE Healthcare Life Sciences), and eluted with an NaCl concentration gradient. The eluate was concentrated using Amicon Ultra-15 10 kDa, thereafter applied to a HiLoad 26/600 Superdex 200 pg (manufactured by GE Healthcare Life Sciences) gel filtration column equilibrated with buffer C (10 mM potassium phosphate buffer pH 7.4, 0.5M NaCl, 400 μM sodium benzoate, 20 μM FAD), and the DAAO protein dimer fraction was recovered. The recovered DAAO protein was replaced (sic) with buffer D (10 mM trisodium citrate, 20 μM FAD, 400 μM sodium benzoate) using Amicon Ultra-15 10 kDa, concentrated to 10 mg/mL and cryopreserved at −80° C.

SMILES | IC50 [2] [nM] | IC50 [1] [nM]
CC(C)(C)c1ccc(CCc2cc(O)c(=O)[nH]n2)cc1 [Example 25] | 6.6 | 18
O=c1[nH]nc(CCc2ccc(OC(F)(F)F)cc2)cc1O [Example 28] | 8.1 | 18
Cc1cc(C)cc(CCc2cc(O)c(=O)[nH]n2)c1 [Example 40] | 4.7 | 9.8
O=c1[nH]nc(CCc2ccc(-c3ccccc3)cc2)cc1O [Example 15] | 1.2 | 16
O=c1[nH]nc(CCc2ccc(F)cc2F)cc1O [Example 21] | 2.2 | 5.5
Cc1ccccc1CCc1cc(O)c(=O)[nH]n1 [Example 22] | 3.3 | 8.4
O=c1[nH]nc(CCCCc2ccccc2)cc1O [Example 52] | 2.5 | 11

Further lines, with some results ahead:

IC50 [2] [nM] | SMILES | IC50 [1] [nM]
6.9 | CCCCc1cc(O)c(=O)[nH]n1 [Example 29] | 13
5.2 | COc1ccc(SCc2cc(=O)c(O)n[nH]2)cc1 [Example 47] | 12
2.5 | Cc1cccc(CCc2cc(O)c(=O)[nH]n2)c1 [Example 20] | 4.6
6.1 | Cc1ccc(CCc2cc(O)c(=O)[nH]n2)cc1 [Example 13] | 14
2.3 | O=c1[nH]nc(CCc2cccc3ccccc23)cc1O [Example 56] | 8.8
2.3 | O=c1cc(COc2cccc(F)c2)[nH]nc1O [Example 232] | 13
44 | O=c1[nH]cc(CCC2CCCCC2)cc1O [Example 58] | –
2.9 | O=c1cc(COc2ccc(F)cc2)[nH]nc1O [Example 231] | 13
8.1 | COCCCc1cc(O)c(=O)[nH]n1 [Example 26] | –
